Test results from patent publication US12636284B2, “Compositions for use in the prevention and/or treatment of intellectual disability and neurodegenerative diseases in a subject with down syndrome” (UNIVERSITA' DEGLI STUDI DI ROMA “LA SAPIENZA”, priority 2021, dated 2026).

What was measured:
[1] = test system: DYRK1A protein; experiment: DYRK1A protein levels in primary hippocampal neurons isolated from Ts2Cje mice; format: cell-based, mouse; conditions: 1, 5, 10 μM for 24 hours, vs untreated Ts2Cje
Description: For Western blots, 20 μg of proteins from the hippocampus of mice belonging to the four experimental groups were separated by 4-15% SDS-PAGE Criterion™ TGX (Tris-Glyicine eXtended) Stain-Free™ (Bio-rad, Hercules, CAUSE). This type of gel allows a rapid acquisition of the protein run in the ultraviolet (UV) by Chemidoc™ MP imaging systems (Bio-rad, Hercules, CA, USA). Therefore, the gel, once the image has been acquired, represents the total of the loaded proteins (Total Load), which will then be used to normalize the specific proteins to be examined. After electrophoresis and gel imaging, proteins are transferred via the semi-dry TransBlot Turbo apparatus (Bio-Rad Laboratories) onto nitrocellulose membranes (Bio-Rad, Hercules, CA, USA). Nitrocellulose membranes are blocked with 3% bovine serum albumin (BSA) in a solution of Tween 20-TBS and incubated overnight at 4° C. using specific primary antibodies: p(T216)-GSK3B (1:1000, Santa Cruz, #sc-135653), p(S9)-GSK3β (1:1000, Cell Signaling, #5558S), GSK3β (1:1000 Abcam, #93926) and DYRK1A (1:1000, Cell Signaling, #8765S), MAPK44/42 (1:1000, Cell Signaling, #9102), p(Thr202/Tyr204)-MAPK44/42 (1 1000, Cell Signaling, #9101), Akt (1:2000, Bio-Rad, # vma00253K), p(S473) Akt (1:1000, Cell Signaling, #4060S). After three washes with a T-TBS buffer solution, membranes were incubated for 1 hour at room temperature with the secondary antibodies. Secondary antibodies with peroxidase activity are anti-mouse or anti-rabbit (1:5000, Bio-rad, Hercules, CA, USA). Membranes were developed using Clarity Enhanced Chemiluminescence (ECL), a chemiluminescent substrate (Bio-rad, Hercules, CA, USA) and acquired with Chemidoc Mp (Bio-rad, Hercules, CA, USA). Finally, the results obtained were analyzed using the ImageLab program (Bio-rad, Hercules, CA, USA).
In order to isolate primary hippocampal neurons, hippocampi from Ts and euploid mice were mechanically dissociated in PBS (with Ca^2+ and Mg^2−) and centrifuged (3 minutes, 1100 rpm, 25° C.). […]

[2] = test system: GSK3b protein; experiment: GSK3b activation (pSer9/pTyr216 ratio) in primary hippocampal neurons isolated from Ts2Cje mice; format: cell-based, mouse; conditions: 1, 5, 10 μM for 24 hours
Description: For Western blots, 20 μg of proteins from the hippocampus of mice belonging to the four experimental groups were separated by 4-15% SDS-PAGE CriterionTM […] (Bio-rad, Hercules, CAUSE). […] Therefore, the gel, once the image has been acquired, represents the total of the loaded proteins (Total Load), which will then be used to normalize the specific proteins to be examined. After electrophoresis and gel imaging, proteins are transferred via the semi-dry TransBlot Turbo apparatus (Bio-Rad Laboratories) onto nitrocellulose membranes (Bio-Rad, Hercules, CA, USA). Nitrocellulose membranes are blocked with 3% bovine serum albumin (BSA) in a solution of Tween 20-TBS and incubated overnight at 4° C. using specific primary antibodies: p([…])-GSK3B (1:1000, Santa Cruz, #sc-135653), p(S9)-GSK3β (1:1000, Cell Signaling, #5558S), GSK3β (1:1000 Abcam, #93926) and DYRK1A (1:1000, Cell Signaling, #8765S), MAPK44/42 (1:1000, Cell Signaling, #9102), p[…])-MAPK44/42 (1 1000, Cell Signaling, #9101), Akt (1:2000, Bio-Rad, # vma00253K), p(S473) Akt (1:1000, Cell Signaling, #4060S). After three washes with a T-TBS buffer solution, membranes were incubated for 1 hour at room temperature with the secondary antibodies. Secondary antibodies with peroxidase activity are anti-mouse or anti-rabbit (1:5000, Bio-rad, Hercules, CA, USA). […] Finally, the results obtained were analyzed using the ImageLab program (Bio-rad, Hercules, CA, USA). […] In order to isolate primary hippocampal neurons, hippocampi from Ts and euploid mice were mechanically dissociated in PBS (with Ca^2+ and […]) and centrifuged (3 minutes, 1100 rpm, 25° C.). Subsequently, the pellet was resuspended in 0.25% trypsin solution and centrifuged further for 3 minutes at 1100 rpm at Tamb. At this point, the cell extract was resuspended in MEM 1 culture medium (Minimum Essential Medium complemented with fetal bovine serum (FBS-1%), L-glutamine 200 mM (1%), glucose 25 mM (1%), gentamicin 0.1 mg/ml) and centrifuged for 10 minutes, 1100 rpm at 25° C. […]

| Structure (SMILES) | levels of the DYRK1A protein in Ts2Cje neurons [1] | activity of the GSK3B protein in Ts2Cje neurons [2] |
| --- | --- | --- |
| Cn1c(=O)cc(N2CCC[C@@H](N)C2)n(Cc2ccccc2C#N)c1=O [alogliptin] | significant reduction | significant increase |
| N#C[C@@H]1CCCN1C(=O)CNC12CC3CC(CC(O)(C3)C1)C2 [vildagliptin] | significant reduction | significant increase |
